Laboratory results reported in ChEMBL document CHEMBL3112421, “Small Macrocycles As Highly Active Integrin α2β1 Antagonists” (ACS Med Chem Lett, 2014).

Experiments:
[1] = biological target: Integrin alpha2/beta1 (Homo sapiens, UniProt P05556+P17301); experiment: Antagonist activity at recombinant integrin alpha2 beta1 receptor (unknown origin) assessed as inhibition of interaction with biotinylated collagen type-1 after 3 hrs by solid phase ELISA-type assay; type: protein-complex assay
[2] = Permeability across human Caco2 cells; type: ADME, cell-based; settings: Caco-2, read-out: permeability

Sequence of Integrin alpha2/beta1 (P05556 whole entry): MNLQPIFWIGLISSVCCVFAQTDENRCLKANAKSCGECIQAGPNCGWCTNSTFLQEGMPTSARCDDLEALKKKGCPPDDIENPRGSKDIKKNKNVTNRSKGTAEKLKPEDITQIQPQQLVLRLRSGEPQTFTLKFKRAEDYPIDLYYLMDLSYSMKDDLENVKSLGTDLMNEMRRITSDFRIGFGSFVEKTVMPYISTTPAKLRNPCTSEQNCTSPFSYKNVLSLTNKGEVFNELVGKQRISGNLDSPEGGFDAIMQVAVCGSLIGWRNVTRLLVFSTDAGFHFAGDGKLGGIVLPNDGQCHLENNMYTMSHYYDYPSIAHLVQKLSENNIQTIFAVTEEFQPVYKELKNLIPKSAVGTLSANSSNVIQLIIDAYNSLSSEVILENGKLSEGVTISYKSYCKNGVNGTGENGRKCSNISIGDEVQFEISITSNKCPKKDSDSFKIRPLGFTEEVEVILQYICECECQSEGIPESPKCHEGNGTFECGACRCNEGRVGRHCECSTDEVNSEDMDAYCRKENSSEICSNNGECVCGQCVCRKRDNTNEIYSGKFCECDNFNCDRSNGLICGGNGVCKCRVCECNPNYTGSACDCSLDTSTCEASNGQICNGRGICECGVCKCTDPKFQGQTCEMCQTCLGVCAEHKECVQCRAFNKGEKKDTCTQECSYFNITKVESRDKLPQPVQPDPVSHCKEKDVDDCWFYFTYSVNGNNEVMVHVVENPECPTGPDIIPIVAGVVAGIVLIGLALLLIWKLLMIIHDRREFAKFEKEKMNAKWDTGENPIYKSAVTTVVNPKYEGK
Sequence of Integrin alpha2/beta1 (P17301 whole entry): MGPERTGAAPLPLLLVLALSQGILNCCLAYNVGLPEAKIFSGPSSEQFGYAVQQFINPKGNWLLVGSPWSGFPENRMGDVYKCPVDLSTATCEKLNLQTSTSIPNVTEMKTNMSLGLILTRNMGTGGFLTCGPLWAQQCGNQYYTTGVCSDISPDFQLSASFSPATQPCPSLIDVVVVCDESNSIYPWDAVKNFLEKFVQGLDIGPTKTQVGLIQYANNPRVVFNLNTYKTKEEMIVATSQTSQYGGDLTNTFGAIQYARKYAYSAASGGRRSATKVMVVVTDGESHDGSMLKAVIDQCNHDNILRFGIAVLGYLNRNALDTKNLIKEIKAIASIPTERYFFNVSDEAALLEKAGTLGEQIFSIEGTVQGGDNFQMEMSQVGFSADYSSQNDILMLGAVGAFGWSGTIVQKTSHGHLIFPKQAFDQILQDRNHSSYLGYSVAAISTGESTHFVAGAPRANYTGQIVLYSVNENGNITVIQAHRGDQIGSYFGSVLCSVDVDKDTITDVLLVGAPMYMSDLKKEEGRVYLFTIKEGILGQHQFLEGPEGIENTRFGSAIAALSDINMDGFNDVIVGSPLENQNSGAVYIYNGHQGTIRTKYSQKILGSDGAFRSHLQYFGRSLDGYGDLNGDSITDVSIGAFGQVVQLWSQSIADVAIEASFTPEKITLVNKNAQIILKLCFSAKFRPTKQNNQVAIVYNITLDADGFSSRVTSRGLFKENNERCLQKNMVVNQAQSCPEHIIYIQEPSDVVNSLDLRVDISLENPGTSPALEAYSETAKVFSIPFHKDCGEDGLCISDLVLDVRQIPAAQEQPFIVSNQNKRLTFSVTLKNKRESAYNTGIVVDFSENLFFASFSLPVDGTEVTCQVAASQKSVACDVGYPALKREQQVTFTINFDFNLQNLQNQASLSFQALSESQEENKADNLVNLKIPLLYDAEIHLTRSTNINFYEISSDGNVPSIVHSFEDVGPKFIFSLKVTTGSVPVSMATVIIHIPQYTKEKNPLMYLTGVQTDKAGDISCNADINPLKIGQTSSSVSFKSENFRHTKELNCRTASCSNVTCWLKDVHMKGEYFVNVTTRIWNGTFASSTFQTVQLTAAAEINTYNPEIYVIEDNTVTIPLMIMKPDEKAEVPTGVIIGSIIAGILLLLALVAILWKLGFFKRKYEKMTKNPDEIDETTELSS

IC50 [1] | Papp [2] | Structure (SMILES)
> 10000 nM |  | O=C1N[C@H](C(=O)O)Cc2cccc(c2)OCCCCOc2cccc1c2
12 nM |  | O=C1N[C@H](C(=O)O)Cc2cn(c3ccccc23)C/C=C/COc2ccc(Cl)c1c2
731 nM |  | O=C1N[C@H](C(=O)O)Cc2cn(cn2)CCCCCOc2ccc(Cl)c1c2
> 4000 nM |  | O=C1N[C@H](C(=O)O)Cc2ncn(c2Cl)C/C=C/COc2ccc(Cl)c1c2
38 nM |  | O=C1N[C@H](C(=O)O)Cn2cc(nn2)C/C=C/COc2ccc(Cl)c1c2 (mixture of isomers)
745 nM |  | Cc1ccc2cc1C(=O)N[C@H](C(=O)O)Cc1cccc(c1)OCCCCO2
 | > 2 ×10⁻⁶ cm/s | CCOC(=O)[C@@H]1Cc2cn(cn2)C/C=C/COc2ccc(Cl)c(c2)C(=O)N1
1050 nM |  | Cc1ccc2cc1C(=O)N[C@H](C(=O)O)Cc1cccc(c1)OC/C=C/CO2
> 4000 nM |  | O=C1NC(C(=O)O)Cc2ccccc2OCCCCOc2ccc(Cl)c1c2 (racemic)
909 nM |  | O=C1N[C@@H](C(=O)O)Cc2cn(cn2)C/C=C/COc2ccc(Cl)c1c2
1300 nM |  | O=C1N[C@H](C(=O)O)Cn2cc(nn2)CCCCOc2ccc(Cl)c1c2
176 nM |  | O=C1N[C@H](C(=O)O)Cc2cn(cn2)C/C=C/Cc2ccc(Cl)c1c2
36 nM |  | O=C1N[C@H](C(=O)O)Cc2cn(cn2)C/C=C/COc2ccc(Cl)c1n2
270 nM |  | O=C1N[C@H](C(=O)O)Cc2cn(cn2)CC/C=C/COc2ccc(Cl)c1c2 (mixture of isomers)
214 nM |  | Cc1cccc(Cl)c1C(=O)N[C@@H](Cc1ccc(NC(=O)c2c(Cl)cccc2Cl)cc1)C(=O)O
233 nM |  | O=C1N[C@H](C(=O)O)Cc2cccc(c2)OC/C=C/COc2ccc(Cl)c1c2
> 4000 nM |  | COc1cccc2c1C(=O)N[C@H](C(=O)O)Cc1cccc(c1)OCCCCO2
142 nM |  | O=C1N[C@H](C(=O)O)Cc2cccc(c2)OCCCCOc2ccc(Cl)c1c2

Structure (SMILES) | IC50 [1] | Papp [2]
O=C1N[C@H](C(=O)O)Cc2ccc(cc2)OCCCCOc2cccc(Cl)c21 | 106 nM | 
O=C1N[C@H](C(=O)O)Cc2ccc(cc2)OCCCCOc2ccc(Cl)c1c2 | 731 nM | 
O=C1N[C@H](C(=O)O)Cc2cccc(c2)OC/C=C/COc2ccc1c(Cl)c2 | 163 nM | 
O=C1N[C@H](C(=O)O)Cc2cccc(c2)OC/C=C/COc2cc(C(F)(F)F)c1cn2 | 1900 nM | 
O=C1N[C@H](C(=O)O)Cc2ccc(nc2)OC/C=C/COc2ccc(Cl)c1c2 | 134 nM | 
